The record followed here is patent publication US11058678B2 (Enanta Pharmaceuticals, Inc., priority 2018, dated 2021).

The test system of this experiment is HBV (2.2.15 cells). Briefly: Antiviral activity in 2.2.15 cells: reduction of viral product accumulation (qPCR of lysates, HBsAg or HBeAg ELISA). The settings on record: Hepatitis B virus, 120 h, day 5 post treatment, 50% reduction of viral product accumulation in lysates or supernatants vs no drug controls, readout (qPCR, HBsAg, HBeAg) not specified. The format is cell-based, hepatitis B virus (HBV). In a few lines: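 HBV-producing 2.2.15 cells, 35,000/well, treated with 5-fold serial compound dilutions at 0.5% final DMSO for 5 days. Lysate HBV DNA by qPCR or supernatant HBsAg/HBeAg by ELISA; EC50 is 50% reduction versus no-drug control, binned A<0.1 μM, B 0.1-1 μM, C>1 μM.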
(In general: In qPCR the cycle at which signal appears reflects the starting amount.)

One may read the EC50 as the concentration at which the effect is half-maximal.

Take `COCCCOc1cc2c(cc1-c1cnsc1)-c1cc(=O)c(C(=O)O)cn1[C@H]1[C@@H]2COC1(C)C` [Example 127, (3aS,12bR)-10-(isothiazol-4-yl)-11-(3-methoxypropoxy)-3,3-dimethyl-7-oxo-3,3a,7,12b-tetrahydro-1H-furo[3,4-c]pyrido[2,1-a]isoquinoline-6-carboxylic Acid]: the EC50 was less than 100 nM.
To `COCCCOc1cc2c(cc1-c1cccnc1)-c1cc(=O)c(C(=O)O)cn1[C@H]1[C@@H]2COC1(C)C` [Example 128, (3aS,12bR)-11-(3-methoxypropoxy)-3,3-dimethyl-7-oxo-10-(pyridin-3-yl)-3,3a,7,12b-tetrahydro-1H-furo[3,4-c]pyrido[2,1-a]isoquinoline-6-carboxylic Acid] belongs less than 100 nM; to `CC(C)(C)[C@@H]1Cc2c(cc(C3CCCO3)c3c2CCO3)-c2cc(=O)c(C(=O)O)cn21` (stereo partly drawn) [Example 129, (5S)-5-(tert-butyl)-9-oxo-12-(tetrahydrofuran-2-yl)-2,3,4,9-tetrahydro-5H-furo[3,2-f]pyrido[2,1-a]isoquinoline-8-carboxylic Acid], less than 100 nM.
The figure for `CC(C)(C)[C@@H]1Cc2c(cc(C3CCOC3)c3c2CCO3)-c2cc(=O)c(C(=O)O)cn21` (stereo partly drawn) [Example 130, (5S)-5-(tert-butyl)-9-oxo-12-(tetrahydrofuran-3-yl)-2,3,4,9-tetrahydro-5H-furo[3,2-f]pyrido[2,1-a]isoquinoline-8-carboxylic Acid] is less than 100 nM; for `CC(C)(C)[C@@H]1Cc2c(cc(C3COC3)c3c2CCO3)-c2cc(=O)c(C(=O)O)cn21` [Example 131, (S)-5-(tert-butyl)-12-(oxetan-3-yl)-9-oxo-2,3,4,9-tetrahydro-5H-furo[3,2-f]pyrido[2,1-a]isoquinoline-8-carboxylic Acid] it is less than 100 nM.
`CC1(C)Cc2c3c(cc(-c4ccoc4)c2O1)-c1cc(=O)c(C(=O)O)cn1[C@H](C(C)(C)C)C3` [Example 133, (S)-5-(tert-butyl)-12-(furan-3-yl)-2,2-dimethyl-9-oxo-2,3,4,9-tetrahydro-5H-furo[3,2-f]pyrido[2,1-a]isoquinoline-8-carboxylic acid] registered an EC50 of 100 to 1000 nM.
To `COCCCCc1cc2c(cc1-c1ccc(F)cc1)-c1cc(=O)c(C(=O)O)cn1[C@H](C(C)(C)C)C2` [Example 134, (S)-6-(tert-butyl)-10-(4-fluorophenyl)-9-(4-methoxybutyl)-2-oxo-6,7-dihydro-2H-pyrido[2,1-a]isoquinoline-3-carboxylic Acid] belongs less than 100 nM; to `COCCCOc1cc2c(cc1-c1cn[nH]c1)-c1cc(=O)c(C(=O)O)cn1[C@H]1[C@@H]2COC1(C)C` [Example 135, (3aS,12bR)-11-(3-methoxypropoxy)-3,3-dimethyl-7-oxo-10-(1H-pyrazol-4-yl)-3,3a,7,12b-tetrahydro-1H-furo[3,4-c]pyrido[2,1-a]isoquinoline-6-carboxylic Acid], less than 100 nM; to `COCCCOc1cc2c(cc1-c1ccccc1F)-c1cc(=O)c(C(=O)O)cn1[C@H]1[C@@H]2COC1(C)C` [Example 136, (3aS,12bR)-10-(2-fluorophenyl)-11-(3-methoxypropoxy)-3,3-dimethyl-7-oxo-3,3a,7,12b-tetrahydro-1H-furo[3,4-c]pyrido[2,1-a]isoquinoline-6-carboxylic Acid], less than 100 nM.
The figure for `COCCCOc1cc2c(cc1-c1ccc(Cl)cc1)-c1cc(=O)c(C(=O)O)cn1[C@H]1[C@@H]2COC1(C)C` [Example 137, (3aS,12bR)-10-(4-chlorophenyl)-11-(3-methoxypropoxy)-3,3-dimethyl-7-oxo-3,3a,7,12b-tetrahydro-1H-furo[3,4-c]pyrido[2,1-a]isoquinoline-6-carboxylic Acid] is greater than 1000 nM; for `COCCCOc1cc2c(cc1-c1cccc(Cl)c1)-c1cc(=O)c(C(=O)O)cn1[C@H]1[C@@H]2COC1(C)C` [Example 138, (3aS,12bR)-10-(3-chlorophenyl)-11-(3-methoxypropoxy)-3,3-dimethyl-7-oxo-3,3a,7,12b-tetrahydro-1H-furo[3,4-c]pyrido[2,1-a]isoquinoline-6-carboxylic Acid] it is less than 100 nM.
